Consider 15 compounds from PubChem BioAssay (NCI).

Test systems include HOP-62 NSCLC; HS 578T breast; OVCAR-3 ovarian; OVCAR-4 ovarian; OVCAR-8 ovarian; SK-MEL-28 melanoma; SW-620 colon; T-47D breast; U251 CNS; A498 renal.
What all share (experiment): NCI tumour cell line growth inhibition, 48 h

“And” between values parts separate entries of the source, which are not always exact repeats. Equal values may be shown once.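 Briefly, cells in 96-well plates were exposed to five compound concentrations for 48 h, and endpoints were estimated by linear interpolation. At the GI50, growth is halved. TGI: total growth inhibition.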

Consider `COC(=O)c1cc(C)ccc1C1CN=NC12Cc1c(C)cc(C)cc1C2=O` (centres undefined), for which the TGI was greater than 100 µM with HOP-62 NSCLC; 55.8 µM with HS 578T breast; 75.5 µM with OVCAR-3 ovarian; 80 µM with OVCAR-4 ovarian; greater than 100 µM in the assay on OVCAR-8 ovarian; greater than 100 µM in the assay with SK-MEL-28 melanoma. Besides, the TGI with SW-620 colon, with T-47D breast and in the assay on U251 CNS was greater than 100 µM each time.

Take `CCC1(OC(=O)CN)C(=O)OCc2c1cc1n(c2=O)Cc2cc3cc4c(cc3nc2-1)OCO4` (centres undefined): the GI50 in the assay on A498 renal is 0.0161 µM and 0.038 µM; with HOP-62 NSCLC, less than 0.01 µM; with OVCAR-3 ovarian, 0.196 µM and 0.131 µM; in the assay on OVCAR-4 ovarian, 0.216 µM and 0.0574 µM; in the assay on SK-MEL-28 melanoma, 0.195 µM and 0.294 µM; in the assay on SW-620 colon it was 0.0116 µM and 0.0165 µM. Also, the GI50 with U251 CNS was less than 0.01 µM. The TGI with A498 renal is 0.0787 µM and 0.241 µM; with HOP-62 NSCLC, less than 0.01 µM; with OVCAR-3 ovarian it was 1.05 µM and 0.554 µM; in the assay on SK-MEL-28 melanoma, 13.3 µM and 11.8 µM; with SW-620 colon, > 100 µM and 10.2 µM; with U251 CNS, 0.0195 µM.

For `Cn1c(=O)n(CC2CS2)c2ccccc21` (centres undefined), the TGI with HOP-62 NSCLC, with OVCAR-3 ovarian, with OVCAR-4 ovarian, in the assay on SK-MEL-28 melanoma and with SW-620 colon was greater than 100 µM in each case.

`C[C@]12CCC(=O)C=C1CC[C@@H]1[C@@H]2[C@@H](O)C[C@@]2(C)[C@H]1CC[C@]2(O)C(=O)COC(=O)CCC1CCCC1`: the TGI in the assay on A498 renal, in the assay on OVCAR-3 ovarian, with OVCAR-8 ovarian, in the assay with SK-MEL-28 melanoma, with SW-620 colon and with U251 CNS was greater than 100 µM throughout.

As for `COc1cc2oc(=O)cc(C)c2c(OC)c1OC(C)=O`, the TGI in the assay on A498 renal, with HOP-62 NSCLC, in the assay on HS 578T breast, in the assay on OVCAR-3 ovarian, with OVCAR-4 ovarian and with OVCAR-8 ovarian was greater than 100 µM throughout. For the same compound, the TGI in the assay on SK-MEL-28 melanoma, in the assay with SW-620 colon and in the assay with U251 CNS was greater than 100 µM each time.

As for `COc1ccc(OC)c(C[P+](c2ccccc2)(c2ccccc2)c2ccccc2)c1`, the TGI with A498 renal was 23.5 µM; in the assay with HOP-62 NSCLC, 22.2 µM; in the assay on HS 578T breast, 8.45 µM; in the assay on OVCAR-3 ovarian, greater than 37.3 µM; in the assay on OVCAR-4 ovarian it was greater than 48.8 µM; in the assay on OVCAR-8 ovarian it was greater than 65.3 µM. Besides, the TGI with SK-MEL-28 melanoma is 18.8 µM; in the assay with SW-620 colon, greater than 100 µM; with T-47D breast it was greater than 90 µM.

With `C[PH+](c1nc2ccccc2nc1[PH+](C)C(C)(C)C)C(C)(C)C.C[PH+](c1nc2ccccc2nc1[PH+](C)C(C)(C)C)C(C)(C)C.[Au+].[Cl-]` (centres undefined), the GI50 is 0.0263 µM with A498 renal; 0.0447 µM in the assay on HS 578T breast; 0.0349 µM in the assay with OVCAR-4 ovarian; 0.0358 µM with OVCAR-8 ovarian; 0.0538 µM in the assay on SK-MEL-28 melanoma; 0.0356 µM with SW-620 colon. The TGI was 0.445 µM in the assay on A498 renal; 1.75 µM with HS 578T breast; 0.77 µM in the assay with OVCAR-4 ovarian; 1.88 µM in the assay on OVCAR-8 ovarian; 1.5 µM in the assay on SK-MEL-28 melanoma; 1.18 µM in the assay on SW-620 colon.

As for `CCOC(=O)c1c(N)sc2c1C(C(=O)OCC)CCC2` (centres undefined), the TGI in the assay on A498 renal, in the assay on HOP-62 NSCLC, with HS 578T breast, in the assay on OVCAR-8 ovarian, in the assay on SK-MEL-28 melanoma and in the assay on SW-620 colon was greater than 100 µM throughout. The TGI with T-47D breast and in the assay on U251 CNS was greater than 100 µM throughout.

Regarding `Cc1cn(CCOCCOC(=O)NC(CCCNC(N)=O)C(=O)O)c(=O)[nH]c1=O` (centres undefined), the TGI with HOP-62 NSCLC, in the assay on HS 578T breast, in the assay on OVCAR-3 ovarian, in the assay with OVCAR-4 ovarian, in the assay on OVCAR-8 ovarian and with SK-MEL-28 melanoma was greater than 100 µM throughout. Further, the TGI in the assay with SW-620 colon, in the assay on T-47D breast and in the assay with U251 CNS was greater than 100 µM in each case.

For the compound `Cc1nc(Nc2nc3ccccc3[nH]2)nc(Cl)c1CCCl`, the TGI in the assay on A498 renal, in the assay with HS 578T breast, in the assay with OVCAR-4 ovarian, with OVCAR-8 ovarian, in the assay with SK-MEL-28 melanoma and with SW-620 colon was greater than 100 µM each time. Further, the TGI in the assay on T-47D breast and in the assay on U251 CNS was greater than 100 µM each time.

For `Clc1nc2c(C#Cc3ccccc3)ncnc2n1C1CCCCO1` (centres undefined), the TGI in the assay on HOP-62 NSCLC was greater than 100 µM; in the assay on HS 578T breast, 99.5 µM; in the assay with OVCAR-3 ovarian, 30.4 µM; in the assay on OVCAR-4 ovarian it was 35.9 µM; in the assay on OVCAR-8 ovarian it was greater than 100 µM; with SK-MEL-28 melanoma, 91.3 µM. In addition, the TGI with SW-620 colon is 55.3 µM; in the assay on T-47D breast, greater than 100 µM; with U251 CNS, 26.2 µM.

In the case of `NNC(=O)Cn1ccnn1`, the TGI in the assay with HOP-62 NSCLC, with OVCAR-8 ovarian, with SK-MEL-28 melanoma, in the assay on SW-620 colon and in the assay with U251 CNS was greater than 100 µM each time.

On to `Cc1nc2cccc(F)c2c(=O)n1-c1nnc(C(F)(F)F)s1`, for which the TGI in the assay on HOP-62 NSCLC, in the assay with HS 578T breast, in the assay with OVCAR-3 ovarian, with OVCAR-4 ovarian, in the assay with OVCAR-8 ovarian and with SK-MEL-28 melanoma was greater than 10 µM in each case. Besides, the TGI with SW-620 colon, with T-47D breast and in the assay with U251 CNS was greater than 10 µM in each case.

As to `COc1cc(S(=O)(=O)Nc2ccc(-c3csc(/N=C\c4ccccc4)n3)cc2)ccc1Cl`, the TGI in the assay on A498 renal, in the assay with HOP-62 NSCLC, in the assay on HS 578T breast, with OVCAR-3 ovarian, with OVCAR-4 ovarian and in the assay with OVCAR-8 ovarian was greater than 100 µM each time. In addition, the TGI in the assay with SK-MEL-28 melanoma, with SW-620 colon and in the assay on T-47D breast was greater than 100 µM each time.

Turning to `CN(C)CCNC(=O)c1cc(NC(=O)c2cc(NC(=O)CC/C=C3/[C@@H]4CC[C@H]3N=N4)cn2C)cn1C`, the TGI in the assay with A498 renal, in the assay with HOP-62 NSCLC, in the assay with HS 578T breast, in the assay with OVCAR-3 ovarian, with OVCAR-4 ovarian and in the assay with OVCAR-8 ovarian was greater than 100 µM throughout. Besides, the TGI in the assay on SK-MEL-28 melanoma, with SW-620 colon and in the assay on U251 CNS was greater than 100 µM each time.
